Read-outs that look alike come from different tables or passages of the source.

Test [1] deals with Mcl-1 protein (UniProtKB primary accession number: Q07820) (Homo sapiens, UniProt Q07820). As to the kind of experiment: Inhibition of Mcl-1 by fluorescence polarisation, Method 1. Type of test: binding. As to conditions: fluorescence polarisation; Method 1, or Method 2; read-out: IC50 (M) Mcl-1 FP. An outline of the steps: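 Buffer of 10 mM HEPES pH 7.4 with 150 mM NaCl and 0.05% Tween 20 held 5 nM Mcl-1 and 1 nM fluorescein-tagged ligand (final). Compounds were tested as 11-point serial dilutions at 5% final DMSO, and binding was read by FP.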
Sequence of Mcl-1 protein (Q07820 whole entry): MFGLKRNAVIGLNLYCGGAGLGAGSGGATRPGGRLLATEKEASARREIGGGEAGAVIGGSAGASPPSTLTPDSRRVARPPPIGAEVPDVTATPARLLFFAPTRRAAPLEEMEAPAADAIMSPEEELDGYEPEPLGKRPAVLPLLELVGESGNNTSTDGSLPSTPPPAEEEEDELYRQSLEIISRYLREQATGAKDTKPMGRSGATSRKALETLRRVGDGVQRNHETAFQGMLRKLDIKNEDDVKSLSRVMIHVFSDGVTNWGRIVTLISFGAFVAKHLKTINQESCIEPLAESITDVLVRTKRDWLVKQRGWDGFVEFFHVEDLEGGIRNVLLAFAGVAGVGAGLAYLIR

Test [2] has as its system H929 multiple myeloma tumour line. Briefly: In vitro cytotoxicity, Microculture Tetrazolium Assay. Type of test: cell-based. As to conditions: H929 cells, 48 hours exposure, MTT, read-out: IC50 (μM) MTT H929. On the procedure: The cytotoxicity studies were carried out on the H929 multiple myeloma tumour line.
The cells are distributed onto microplates and exposed to the test compounds for 48 hours.

For the compound `Cc1cc(-c2nccc(COc3ccccc3C[C@@H](Oc3ncnc4sc(-c5ccc(F)cc5)c(-c5ccc(OCCN6CCN(C)CC6)c(Cl)c5C)c34)C(=O)O)n2)cnc1C` [Example 732, (2R)-2-{[(5Sa)-5-{3-chloro-2-methyl-4-[2-(4-methylpiperazin-1-yl)ethoxy]phenyl}-6-(4-fluorophenyl)thieno[2,3-d]pyrimidin-4-yl]oxy}-3-(2-{[2-(5,6-dimethylpyridin-3-yl)pyrimidin-4-yl]methoxy}phenyl)propanoic acid], the IC50 in test [1] amounted to 1.27e-09 M; in test [2], 0.013 µM.

Regarding `COc1ccc(-c2nccc(COc3ccccc3CC(Oc3ncnc4sc(-c5ccc(F)cc5)c(-c5ccc(OCCN6CCN(C)CC6)c(Cl)c5C)c34)C(=O)O)n2)c(OC)c1` [Example 733, (2R)-2-{[(5Sa)-5-{3-chloro-2-methyl-4-[2-(4-methylpiperazin-1-yl)ethoxy]phenyl}-6-(4-fluorophenyl)thieno[2,3-d]pyrimidin-4-yl]oxy}-3-(2-{[2-(2,4-dimethoxyphenyl)pyrimidin-4-yl]methoxy}phenyl)propanoic acid], the IC50 is 9.48e-10 M in test [1] and 0.005 µM in test [2] (Homo sapiens, NCI-H929, 48 h).

Consider `COc1cc(-c2nccc(COc3ccccc3CC(Oc3ncnc4sc(-c5ccc(F)cc5)c(-c5ccc(OCCN6CCN(C)CC6)c(Cl)c5C)c34)C(=O)O)n2)ccn1` [Example 735, (2R)-2-{[(5Sa)-5-{3-chloro-2-methyl-4-[2-(4-methylpiperazin-1-yl)ethoxy]phenyl}-6-(4-fluorophenyl)thieno[2,3-d]pyrimidin-4-yl]oxy}-3-(2-{[2-(2-methoxypyridin-4-yl)pyrimidin-4-yl]methoxy}phenyl)propanoic acid], for which the IC50 in test [1] was determined as 9.48e-10 M; in test [2] (Homo sapiens, NCI-H929, 48 h), 0.007 µM.

With `COc1ccccc1-n1nccc1COc1ccccc1CC(Oc1ncnc2sc(-c3ccc(F)cc3)c(-c3ccc(OCCN4CCN(C)CC4)c(Cl)c3C)c12)C(=O)O` [Example 738, (2R)-2-{[(5Sa)-5-{3-chloro-2-methyl-4-[2-(4-methylpiperazin-1-yl)ethoxy]phenyl}-6-(4-fluorophenyl)thieno[2,3-d]pyrimidin-4-yl]oxy}-3-(2-{[1-(2-methoxyphenyl)-1H-pyrazol-5-yl]methoxy}phenyl)propanoic acid], the IC50 in test [1] stood at 3.78e-09 M; in test [2] (Homo sapiens, NCI-H929, 48 h), 0.103 µM.

With `COc1ccccc1Cn1nccc1COc1ccccc1CC(Oc1ncnc2sc(-c3ccc(F)cc3)c(-c3ccc(OCCN4CCN(C)CC4)c(Cl)c3C)c12)C(=O)O` [Example 739, (2R)-2-{[(5Sa)-5-{3-chloro-2-methyl-4-[2-(4-methylpiperazin-1-yl)ethoxy]phenyl}-6-(4-fluorophenyl)thieno[2,3-d]pyrimidin-4-yl]oxy}-3-(2-{[1-(2-methoxybenzyl)-1H-pyrazol-5-yl]methoxy}phenyl)propanoic acid], the IC50 in test [1] was determined as 2.32e-09 M; in test [2] (Homo sapiens, NCI-H929, 48 h), 0.093 µM.

Consider `COc1ccccc1-c1nccc(COc2ccccc2CC(Oc2ncnc3sc(-c4ccc(F)cc4)c(-c4ccc(OCCN5CCNCC5)c(Cl)c4C)c23)C(=O)O)n1` [Example 744, (2R)-2-{[(5Sa)-5-{3-chloro-2-methyl-4-[2-(piperazin-1-yl)ethoxy]phenyl}-6-(4-fluorophenyl)thieno[2,3-d]pyrimidin-4-yl]oxy}-3-(2-{[2-(2-methoxyphenyl)pyrimidin-4-yl]methoxy}phenyl)propanoic acid], for which the concentration for half-maximal inhibition (IC50) was 9.48e-10 M in test [1] and 0.042 µM in test [2] (Homo sapiens, NCI-H929, 48 h).

On to `CCN1CCN(CCOc2ccc(-c3c(-c4ccc(F)cc4)sc4ncnc(OC(Cc5ccccc5OCc5ccnc(-c6ccccc6F)n5)C(=O)O)c34)c(C)c2Cl)CC1` [Example 745, (2R)-2-{[(5Sa)-5-{3-chloro-4-[2-(4-ethylpiperazin-1-yl)ethoxy]-2-methylphenyl}-6-(4-fluorophenyl)thieno[2,3-d]pyrimidin-4-yl]oxy}-3-(2-{[2-(2-fluorophenyl)pyrimidin-4-yl]methoxy}phenyl)propanoic acid], for which the IC50 turned out to be 9.48e-10 M in test [1] and 0.003 µM in test [2] (Homo sapiens, NCI-H929, 48 h).

In the case of `CCN(CC)CCOc1ccc(-c2c(-c3ccc(F)cc3)sc3ncnc(OC(Cc4ccccc4OCc4ccnc(-c5ccccc5F)n4)C(=O)O)c23)c(C)c1Cl` [Example 746, (2R)-2-{[(5Sa)-5-{3-chloro-4-[2-(diethylamino)ethoxy]-2-methylphenyl}-6-(4-fluorophenyl)thieno[2,3-d]pyrimidin-4-yl]oxy}-3-(2-{[2-(2-fluorophenyl)pyrimidin-4-yl]methoxy}phenyl)propanoic acid], the IC50 in test [1] is 3.5e-09 M; in test [2] (Homo sapiens, NCI-H929, 48 h), 0.111 µM.

`CCN(C)CCOc1ccc(-c2c(-c3ccc(F)cc3)sc3ncnc(OC(Cc4ccccc4OCc4ccnc(-c5ccccc5F)n4)C(=O)O)c23)c(C)c1Cl` [Example 747, (2R)-2-{[(5Sa)-5-(3-chloro-4-{2-[ethyl(methyl)amino]ethoxy}-2-methylphenyl)-6-(4-fluorophenyl)thieno[2,3-d]pyrimidin-4-yl]oxy}-3-(2-{[2-(2-fluorophenyl)pyrimidin-4-yl]methoxy}phenyl)propanoic acid]: the concentration for half-maximal inhibition (IC50) in test [1] was 3.6e-09 M; in test [2] (Homo sapiens, NCI-H929, 48 h), 0.0263 µM.

In the case of `Cc1cc(-c2nccc(COc3ccccc3CC(Oc3ncnc4sc(-c5ccc(F)cc5)c(-c5ccc(OCCN(C)C)c(Cl)c5C)c34)C(=O)O)n2)c(C)cn1` [Example 751, (2R)-2-{[(5Sa)-5-{3-chloro-4-[2-(dimethylamino)ethoxy]-2-methylphenyl}-6-(4-fluorophenyl)thieno[2,3-d]pyrimidin-4-yl]oxy}-3-(2-{[2-(2,5-dimethylpyridin-4-yl)pyrimidin-4-yl]methoxy}phenyl)propanoic acid], the half-inhibitory concentration (IC50) in test [1] is 9.48e-10 M; in test [2] (Homo sapiens, NCI-H929, 48 h), 0.008 µM.

Consider `Cc1c(-c2c(-c3ccc(F)cc3)sc3ncnc(OC(Cc4ccccc4OCc4ccnn4C(C)C)C(=O)O)c23)ccc(OCCN(C)C)c1Cl` [Example 752, (2R)-2-{[(5Sa)-5-{3-chloro-4-[2-(dimethylamino)ethoxy]-2-methylphenyl}-6-(4-fluorophenyl)thieno[2,3-d]pyrimidin-4-yl]oxy}-3-(2-{[1-(propan-2-yl)-1H-pyrazol-5-yl]methoxy}phenyl)propanoic acid], for which the half-maximal inhibitory concentration (IC50) in test [1] turned out to be 5.5e-09 M; in test [2] (Homo sapiens, NCI-H929, 48 h), 0.084 µM.

Consider `COCCOc1ccccc1-c1nccc(COc2ccccc2CC(Oc2ncnc3sc(-c4ccc(F)cc4)c(-c4ccc(OCCN(C)C)c(Cl)c4C)c23)C(=O)O)n1` [Example 753, (2R)-2-{[(5Sa)-5-{3-chloro-4-[2-(dimethylamino)ethoxy]-2-methylphenyl}-6-(4-fluorophenyl)thieno[2,3-d]pyrimidin-4-yl]oxy}-3-[2-({2-[2-(2-methoxyethoxy)phenyl]pyrimidin-4-yl}methoxy)phenyl]propanoic acid], for which the half-inhibitory concentration (IC50) was found to be 3e-09 M in test [1] and 0.005 µM in test [2] (Homo sapiens, NCI-H929, 48 h).

Regarding `CCOCCn1nccc1COc1ccccc1CC(Oc1ncnc2sc(-c3ccc(F)cc3)c(-c3ccc(OCCN(C)C)c(Cl)c3C)c12)C(=O)O` [Example 754, (2R)-2-{[(5Sa)-5-{3-chloro-4-[2-(dimethylamino)ethoxy]-2-methylphenyl}-6-(4-fluorophenyl)thieno[2,3-d]pyrimidin-4-yl]oxy}-3-(2-{[1-(2-ethoxyethyl)-1H-pyrazol-5-yl]methoxy}phenyl)propanoic acid], the IC50 turned out to be 4.7e-09 M in test [1] and 0.089 µM in test [2] (Homo sapiens, NCI-H929, 48 h).

In the case of `Cc1c(-c2c(-c3cccc(F)c3F)sc3ncnc(OC(Cc4ccccc4OCc4ccnn4C(C)(C)C)C(=O)O)c23)ccc(OCCN(C)C)c1Cl` [Example 755, (2R)-3-{2-[(1-tert-butyl-1H-pyrazol-5-yl)methoxy]phenyl}-2-{[(5Sa)-5-{3-chloro-4-[2-(dimethylamino)ethoxy]-2-methylphenyl}-6-(2,3-difluorophenyl)thieno[2,3-d]pyrimidin-4-yl]oxy}propanoic acid], the half-inhibitory concentration (IC50) was 4.65e-09 M in test [1] and 0.032 µM in test [2] (Homo sapiens, NCI-H929, 48 h).

With `COc1ccccc1-c1nccc(COc2ccccc2CC(Oc2ncnc3sc(-c4ccc(OCc5ccccc5C)cc4)c(-c4ccc(OCCN5CCN(C)CC5)c(Cl)c4C)c23)C(=O)O)n1` [Example 767, (2R)-2-[((5Sa)-5-{3-chloro-2-methyl-4-[2-(4-methylpiperazin-1-yl)ethoxy]phenyl}-6-{4-[(2-methylbenzyl)oxy]phenyl}thieno[2,3-d]pyrimidin-4-yl)oxy]-3-(2-{[2-(2-methoxyphenyl)pyrimidin-4-yl]methoxy}phenyl)propanoic acid], the IC50 in test [1] turned out to be 1.73e-09 M; in test [2] (Homo sapiens, NCI-H929, 48 h) it was 0.05 µM.

Consider `COc1ccccc1-c1nccc(COc2ccccc2CC(Oc2ncnc3sc(-c4ccc(OCc5ccc(C)cc5)cc4)c(-c4ccc(OCCN5CCN(C)CC5)c(Cl)c4C)c23)C(=O)O)n1` [Example 768, (2R)-2-[((5Sa)-5-{3-chloro-2-methyl-4-[2-(4-methylpiperazin-1-yl)ethoxy]phenyl}-6-{4-[(4-methylbenzyl)oxy]phenyl}thieno[2,3-d]pyrimidin-4-yl)oxy]-3-(2-{[2-(2-methoxyphenyl)pyrimidin-4-yl]methoxy}phenyl)propanoic acid], for which the IC50 in test [1] stood at 1.04e-09 M; in test [2] (Homo sapiens, NCI-H929, 48 h), 0.039 µM.

On to `COc1ccccc1-c1nccc(COc2ccccc2CC(Oc2ncnc3sc(-c4ccc(OCc5ccccn5)cc4)c(-c4ccc(OCCN5CCN(C)CC5)c(Cl)c4C)c23)C(=O)O)n1` [Example 769, (2R)-2-[((5Sa)-5-{3-chloro-2-methyl-4-[2-(4-methylpiperazin-1-yl)ethoxy]phenyl}-6-[4-(pyridin-2-ylmethoxy)phenyl]thieno[2,3-d]pyrimidin-4-yl)oxy]-3-(2-{[2-(2-methoxyphenyl)pyrimidin-4-yl]methoxy}phenyl)propanoic acid], for which the IC50 worked out at 9.48e-10 M in test [1] and 0.01 µM in test [2] (Homo sapiens, NCI-H929, 48 h).
